Measured values taken from US20210123061A1, “METHODS AND COMPOSITIONS FOR TREATING INFLAMMATORY DISEASE OR DISORDER” (THE BRIGHAM AND WOMEN'S HOSPITAL, INC., priority 2018, published 2021).

System: RSK-substrates (RXXpS/T phospho-peptides)
Experiment: Phospho-proteomics with anti-RXXpS/T enrichment in IFN-γ-stimulated macrophages
Assay type: cell-based, human
Conditions: BI-D1870 +IFNg, IP:RXXpS/T, DMSO = 1.00
Description: (FIG. 6A) Scheme of phospho-proteomics. Human PBMC-derived macrophages were treated with DMSO or BI-D1870 for two hours followed by IFN-γ stimulation for subsequent proteolysis and phospho-peptide enrichment using the anti-RXXpS/T antibody strategy. […] N=2 donors. […] The average shortest distance of the same number of randomly selected genes to disease genes was calculated for N=250 realizations in order to compare the average shortest distance value to random expectation. Empirical p-values were calculated based on 100 degree-preserved randomizations of the first neighbor networks.
Phospho-proteomics. Phospho-peptide immunoaffinity purification from cell lysates was performed as described previously (36), with minor modifications. Human PBMC-derived macrophages were pretreated with DMSO or BI-D1870 followed by IFN-γ stimulation. Cell lysates (8.0 mg) were proteolyzed (Lys-C, Wako Chemicals) using in-solution urea strategy detailed previously (34). Trifluoroacetic acid (TFA) was added to protein digests to a final concentration of 1%, precipitate was removed by centrifugation, and digests were loaded onto Sep-Pak C18 columns (Waters) equilibrated with 0.1% TFA. Columns were washed with 0.1% TFA and wash buffer (0.1% TFA, 5% acetonitrile). A peptide fraction was obtained by elution with elution buffer (0.1% TFA, 40% acetonitrile). The peptide eluate was frozen overnight and lyophilize frozen peptide solution for 2 days. Peptides were dissolved in 1.4 mL of IAP buffer (Cell signaling Technology). Insoluble matter was removed by centrifugation. […] The immobilized antibody beads were washed three times with 1 ml IAP buffer and three times with 1 ml water, all at 4° C. Peptides were eluted from beads by incubation with 55 μl of 0.15% TFA at room temperature for 10 minutes (eluate 1), followed by a wash of the beads (eluate 2) with 50 μl of 0.15% TFA. Both eluates were combined. The peptide solution was desalted using Oasis Hlb 1 cc columns (Waters), dried in a SpeedVac, resuspend with Trypsin solution, and digested overnight. After desalting using Oasis Hlb 1 cc columns, peptides were dried in a SpeedVac, and resuspend with 40 μl of 5% acetonitrile and 0.5% formic acid for subsequent analysis by liquid chromatography/mass spectrometry (LC/MS).
Each peptide sample was analyzed four times: a full scan range of 350-1800 m/z and three gas phase separation scans—350-500 m/z, 500-700 m/z, and 700-1200 m/z in order to increase phospho-peptide signals.
Phospho-proteomics and kinase assays. The MS/MS data were queried as above using a 10-ppm tolerance window in the MS1 search space, and a 0.02 Da fragment tolerance window for EThcD or HCD. Methionine oxidation, and phosphorylation of serine and threonine were set as variable modifications, and carbamidomethylation of cysteine residues was set as fixed modifications. High confidently assigned phospho-peptides were used for precursor ion area under the curve (AUC) quantification. The peptides that were detected in IgG conditions were considered as non-specific signals and excluded. The normalized precursor ion intensities were exported from PD2.1.

Structure (SMILES): CC(C)CCN1c2nc(Nc3cc(F)c(O)c(F)c3)ncc2N(C)C(=O)C1C (stereo not drawn) [BI-D1870]
- Intensity of phospho-peptide SLC20A1 S335 [R].ERLPSVDLK.[E] (DMSO +IFNg = 1.51): 0.51
- Intensity of phospho-peptide LUC7L3 T238 [R].KRTEEPDRDER.[L] (DMSO +IFNg = 1.55): 1.03
- Intensity of phospho-peptide STX7 S129 [R].ASSRVSGSFPEDSSK.[E] (DMSO +IFNg = 1.60): 0.67
- Intensity of phospho-peptide AP1AR T228 [R].SKTEEDILR.[A] (DMSO +IFNg = 1.67): 0.80
- Intensity of phospho-peptide AKAP13 T2471 [R].RAETFGGFDSHQMNASK.[G] (DMSO +IFNg = 1.68): 0.73
- Intensity of phospho-peptide CLASP1 S646 [R].RQSSGSATNVASTPDNR.[G] (DMSO +IFNg = 1.75): 0.94
- Intensity of phospho-peptide TRPM7 S1504 [R].RPSTEDTHEVDSK.[A] (DMSO +IFNg = 1.75): 0.73
- Intensity of phospho-peptide SLC4A7 S407 [R].ENSTVDFSK.[VEG] (DMSO +IFNg = 1.79): 1.61
- Intensity of phospho-peptide IFNGR1 T295 [R].SATLETKPESK.[Y] (DMSO +IFNg = 1.83): 0.77
- Intensity of phospho-peptide RPS6 S235 [K].RRRLSSLRASTSK.[S] (DMSO +IFNg = 1.86): 0.74
- Intensity of phospho-peptide REPS1 S650 [R].LKSEDELRPEVDEHTQK.[T] (DMSO +IFNg = 1.91): 0.94
- Intensity of phospho-peptide REPS1 S650 [R].RLKSEDELRPEVDEHTQK.[T] (DMSO +IFNg = 1.96): 1.09
- Intensity of phospho-peptide GPBP1 S49 [R].HNSSDGFDSAIGRPNGGNFGR.[K] (DMSO +IFNg = 2.05): 0.45
- Intensity of phospho-peptide MYO1E T935 [R].RNTTQNTGYSSGTQNANYPVR.[A] (DMSO +IFNg = 2.15): 0.88
- Intensity of phospho-peptide CHP1 T7 [R].ASTLLRDEELEEIKK.[E] (DMSO +IFNg = 2.18): 1.00
- Intensity of phospho-peptide NDRG3 S338 [R].THSTSSSLGSGESPFSR.[S] (DMSO +IFNg = 2.25): 1.07
- Intensity of phospho-peptide GPBP1 S49 [R].RHNSSDGFDSAIGRPNGGNFGR.[K] (DMSO +IFNg = 2.28): 1.00
- Intensity of phospho-peptide NDRG1 S330 [R].TASGSSVTSLDGTR.[S] (DMSO +IFNg = 2.29): 1.88
- Intensity of phospho-peptide STK11IP S398 [R].RASISEPSDTDPEPR.[T] (DMSO +IFNg = 2.31): 0.58
- Intensity of phospho-peptide EIF4B S422 [R].TGSESSQTGTSTTSSR.[SN] (DMSO +IFNg = 2.58): 1.29
- Intensity of phospho-peptide SPECC1L T838 [R].RSSTSSEPTPTVK.[T] (DMSO +IFNg = 2.80): 1.80
- Intensity of phospho-peptide AKT1S1 T266 [R].LNTSDFQK.[L] (DMSO +IFNg = 3.11): 0.89
- Intensity of phospho-peptide RPS6 S235; S236 [R].RLSSLRASTSK.[S] (DMSO +IFNg = 3.46): 1.65
- Intensity of phospho-peptide FLNA S2152 [R].RAPSVANVGSHCDLSLK.[I] (DMSO +IFNg = 3.67): 1.32
